The nature of data set [1]: Photorelease of 4AP from [Ru(bpy)2(4AP)2]Cl2 under visible light (UV-vis, NMR). It counts as physicochemical. On the procedure: (§1) UV-vis spectra in water were obtained with an HP 8453 diode array spectrophotometer. RMN ^1H spectra were obtained using a Bruker 500 MHz equipment. CV measurements were performed with a PAR 273A potentiostat. Irradiation was effected by means of a pulsed Xe lamp, (pulse energy ˜0.5 J), with a low-pass filter at 480 nm. Irradiation using a 473 nm DPSS laser gave similar results.
(§2) Several ruthenium polypyridyl complexes present this behavior. (D. V. Pinnick et al., 1984, Inorg. Chem., 23:1440-1445).
Although at pH 7 the spectrum of the irradiated complex is very similar to that of the original complex, a diminished shoulder at 470 nm becomes evident. To determine the nature of the photoreaction, NMR spectra were taken before and after irradiation with visible light. […] After irradiation, this signal decreased, and two new signals appeared at lower fields: one corresponding to the free ligand (m3), and the other corresponding to the aquo-4AP complex (m2), indicating photorelease of the 4AP. These two latter signals integrated for 0.30 and 0.27 of the initial signal, which corresponds to a photoreaction of 60%.
(§3) (See, e.g., E. S. Dodsworth et al., 1986, Chem. Phys. Lett., 124:152-158). The photoactivity of these compounds has been explained in terms of a reaction pathway that involves the transition between the MLCT state to a lower-energy d-d state, which promotes ligand release. There is a direct correspondence between the energy of the MLCT transition and the quantum yield of the photoreaction. For [Ru(bpy)2(4AP)CH3CN]^2+, the photoreaction yield is about φPR=0.4. Since [Ru(bpy)2(4AP)2]Cl2 presents a red-shifted band, a lower photoreaction yield is expected. An estimate based on early experiments leads to an estimate of φPR≅0.02 at 473 nm.

A short description of data set [2]: Photolysis of [Ru(bpy)2(PMe3)(MTG)]+2, UV-Vis. It counts as physicochemical. On the procedure:
A total of 67 mg of [Ru(bpy)2(PMe3)Cl]PF6 were suspended in 4 ml acetone and 2 ml water, and were heated and stirred at 80° C. until dissolution. Evaporated acetone was gradually replaced with water or acetone to keep total volume constant but avoiding precipitation. All the following was performed under dim red light. 100 mg of D(+)methylthiogalactose were added and the mixture was kept at 80° C. for 5 hours: The reaction progress was followed by UV-Vis spectrophotometry until the aquo complex was no longer detectable. The solution was cooled in ice-cold water and saturated [BPh4]^− as sodium salt was added carefully. The pale yellow precipitate was washed six times in ice cold water by resuspending the precipitate and centrifugation. NMR spectra were taken in a 500 MHz Bruker Avance II spectrometer. Photolysis of the NMR sample was performed inside the unopened NMR tube, by means of a custom-built NMR photolysis device based in 10 high current (100 mA) LEDs with emission wavelength centered at 520+/−20 nm.
The complex has a molar absorptivity coefficient of ˜3100 and a maximum absorption wavelength in the visible range at 422 nm. Photolysis quantum yield is 0.3. Successive photolysis products of the same sample are shown in black (FIG. 21).

The next data set concerns E. coli culture. Nature of the data set: Light-patterned uncaging of MTG in bacterial culture with X-Gal. The data set is classed as cell-based. Conditions: 1 mM complex, 0.02% X-Gal, 20 minutes irradiation, then 37° C. How it is done:
A handheld projector 3M (110 MPro) is used to irradiate for 20 minutes an E. coli culture growing in a piece of 7 cm diameter whatman filter paper soaked in LB medium containing 1 mM [(Ru(bpy)2P(Me)3(MTG)]^+2 and 0.02% X-Gal (FIG. 24A). After image projection, the culture is left at 37° C. for until blue precipitate is noticed (˜40 minutes, FIG. 24B).

The nature of data set [3]: Photorelease of TzGly from [Ru(bpy)2(TzGly)(py)]Cl2. It counts as physicochemical. Conditions: 470 nm.
Data set [4] is described as follows: Photouncaging quantum yield. The data set is classed as physicochemical. On the procedure:
The photouncaging quantum yield measurements were performed with a Nd:YAG diode pumped solid state laser doubled to 473 nm with a constant power of 6.3 mW. The light was collimated and sent through an optical path of 1 cm into a fluorescence glass cuvette, with stirring. Total irradiation energy was measured using a Coherent Fieldmaster FM light meter with a visible light photodiode model SR45.
The quantum yield of rhodamine photorelease was calculated after the analysis of fluorescence emission data during photouncaging at 473 nm. A complete spectrum was obtained once per second. Absorption of light by the complex [Ru(bpy)2(RhodB-MAPN)Cl]^+ yields the aquo complex [Ru(bpy)2(H2O)Cl]^+ and free RhodB-MAPN. In each irradiation period the amount of aquo complex and free RhodB-MAPN generated is given by the following: δn=δtIφPU(1−10^−AbsT)AbsR/AbsT where δt is the irradiation period, I the light intensity in moles of photons per second, φPU is the quantum yield of photouncaging, AbsR is the absorbance of the photoactive species [Ru(bpy)2(RhodB-MAPN)Cl]^+ at 473 nm and AbsT is the total absorbance of the irradiated solution. By means of finite element calculation of the former equation a photouncaging quantum yield of φPU=0.12 at 25° C. was calculated. This value is in good agreement with the reported quantum yields for similar complexes. […]

Data set [5] is described as follows: Fluorescence emission quantum yield before and after irradiation. It counts as physicochemical. The text has this: All reagents were purchased from Sigma-Aldrich and used as received. Ru(bpy)2Cl2 was synthesized according to the literature using water as solvent (Viala, C.; Coudret, C. Inorg. Chim. Acta 2006, 359: 984-989). UV-vis spectra were taken with a HP8453 diode-array spectrometer. NMR spectra were obtained using a 500 MHz Bruker AM-500. Fluorescence emission measurements were made with a PTI Quantamaster spectrofluorometer, corrected for the instruments response function. Rhodamine B was used as fluorescence standard of emission quantum yield (φ=0.31 in aqueous solutions). Quantum yield of the complex was obtained directly from the ratio of the spectral areas, which present the same shape.
FIG. 20 depicts the emission spectra of the complex during irradiation. The maximum and the shape of the initial emission spectrum is the same as that of the free ligand RhodB-MAPN but the emission quantum yield is much lower, around pt=0.04. Quantum yields are easily calculated integrating the spectral areas. After irradiation with a 473 nm laser, RhodB-MAPN is released and the solution increases its fluorescence up to 6 fold, to φt=0.24.

The subject of the next data set is mouse cortical neuron. The data set can be described thus: Whole-cell patch-clamp of cortical neuron, perfusion. The data set is classed as cell-based. Conditions: 1 μM via perfusion. The text has this:
FIGS. 13A and 13B: FIG. 13A depicts the structure of TzGly. […] The measurement results were obtained by the whole-cell patch-clamp method, as known and used in the art.
(In general: The patch-clamp technique gives a direct electrical read-out from membranes.)

Data set [6] in a line: Dark stability and recombination followed by UV-vis spectra. It counts as physicochemical.
Description: The photoproducts after exposure to light were Ru(bpy)2(4AP)(H2O) and free 4AP.
as §2

Data set [7] can be described thus: Cyclic voltammetry, redox potential. The data set is classed as physicochemical. To be noted: in water, versus Ag/AgCl. How it is done: as §1, §3
Its aqueous solutions present a strong metal to ligand charge-transfer band (MLCT band) at 450 nm, characteristic of this family of Ru polypyridines.

For data set [8], the system named is Retzius (Rz) cells in the ganglion. Nature of the data set: Intracellular voltage recording of leech ganglion neuron with light flash uncaging. To be noted: for neuron spiking activity on addition, before light: ˜100 μM in saline, no flash; for neuron spiking activity after light flash: pulsed Xe lamp flash. On the procedure: Hirudo medicinalis has a central nerve cord with several ganglia, each one containing about 400 neurons arranged in a known pattern. (W.-R. Schlue et al., 1980, J. Exp. Biol., 82:23-34). An entire ganglion was mounted on a dish. The transmembrane potential for a single cell (a neuron) in the ganglion was recorded by inserting inside the neuron a glass micropipet with a micrometer-sized end, filled with saturated aqueous KCl that acts as a luggin bridge for an Ag/AgCl electrode. Another Ag/AgCl electrode was used as a reference. The signal was taken with an AM-System 1600 amplifier, and the entire setup was covered with a Faraday cage. A 12 bit A/D acquisition card was used to digitize the data using an ad-hoc program written in QuickBasic.
Low Ca^2+-high Mg^2+ saline solution (NaCl, 102 mM; KCl, 4 mM; CaCl2: 1 mM; and MgCl2: 10 mM; Tris base, pH 5.4 adjusted to 7.4) was perfused through the dish. […] A pulsed Xe lamp located under the dish was used to irradiate the solution. UV light was removed using a band-pass filter at 500 nm.
After impaling the cell with an electrode, many experiments were performed on the same cell to ensure reproducibility. […] 300 seconds later, at 5500 s, a light flash was directed to the ganglion.

Like-named read-outs stand apart in the source and are kept apart here.

Take `CC#N.Nc1ccncc1.[Ru+2].c1ccc(-c2ccccn2)nc1.c1ccc(-c2ccccn2)nc1` [[Ru(bpy)2(4AP)CH3CN]^2+]: in data set [1], the “photoreaction yield φPR” value is approximately 0.4.
The compound `CP(C)C.CS[C@@H]1O[C@H](CO)[C@H](O)[C@H](O)[C@H]1O.[Ru+2].c1ccc(-c2ccccn2)nc1.c1ccc(-c2ccccn2)nc1` [[Ru(bpy)2(PMe3)(MTG)]^+2] showed a photolysis quantum yield in data set [2] of 0.3. In the data set on E. coli culture, the “time until blue precipitate is noticed” value was approximately 40 min.
[Ru(bpy)2(TzGly)(py)]Cl2: the photorelease on irradiation entry in [3] is given as “photoreleased TzGly”.
Consider `C=CCC#N.[Cl][Ru+].c1ccc(-c2ccccn2)nc1.c1ccc(-c2ccccn2)nc1` [[Ru(bpy)2(VACN)Cl]^+], for which the “photouncaging quantum yield φPU (VACN release)” value in [4] is 0.21.
Take `CCN(CC)c1ccc2c(-c3ccccc3C(=O)N(C)CCC#N)c3ccc(=[N+](CC)CC)cc-3oc2c1.[Cl][Ru+].c1ccc(-c2ccccn2)nc1.c1ccc(-c2ccccn2)nc1` [[Ru(bpy)2(RhodB-MAPN)Cl]^+]: in data set [5] (after blue light (473 nm) irradiation), the increase of fluorescence result was “up to 6 fold”. Further, the emission quantum yield in [5] (after irradiation with a 473 nm laser) is 0.24; in data set [5] (aqueous, before irradiation) it was approximately 0.04. Besides, in data set [4] (473 nm, 25° C.), the “photouncaging quantum yield φPU” value is listed as 0.12.
As to `NC(C(=O)O)c1nnn[nH]1` (racemic) [TzGly, (RS)-(tetrazol-5-yl)glycine], in the data set with mouse cortical neuron, the effect on neuron result is on record as “spiking”.
On to `Nc1ccncc1.Nc1ccncc1.[Cl-].[Cl-].[Ru+2].c1ccc(-c2ccccn2)nc1.c1ccc(-c2ccccn2)nc1` [[Ru(bpy)2(4AP)2]Cl2], for which the “extent of photoreaction (NMR signal integration)” value in data set [1] (after irradiation with visible light) worked out at 60%. For the same compound, the “photoreaction yield φPR” value in data set [1] (at 473 nm, estimate based on early experiments) was approximately 0.02. Moreover, the “time without dark decomposition” value in [6] (in the dark) is “more than 20 hours”. Further, the 4AP recombination result in data set [6] (irradiated solution, after 7 hours in the dark) is “less than 4%”. Moreover, the “stability in the dark” value in data set [6] (water) is “stable in the dark”. In addition, the “redox potential of the couple R^III/R^II” value in [7] is 0.76 V. In [8] (during the experiments), the “toxicity on the neuron” value is “Neither toxicity nor a deleterious effect was observed”. The “neuron spiking activity on addition, before light” value in data set [8] is on record as “the activity remained unchanged”. Moreover, in data set [8] (˜100 μM), the “neuron spiking activity after light flash” value was “sudden activity was recorded and it remained high after 300 s”. Also, in data set [8] (˜100 μM, second light pulse at 6750 s), the “neuron spiking activity after second light pulse” value is on record as “even higher activity”.
Regarding `[Cl][Ru][Cl].c1ccc(-c2ccccn2)nc1.c1ccc(-c2ccccn2)nc1.c1ccc(-c2ccccn2)nc1` [Ru(bpy)3Cl2, reference compound], the “neuron spiking activity on addition, before light” value in [8] is reported as “without significant changes in activity”. Moreover, in [8] (˜100 μM), the “neuron spiking activity after light flash” value was “after a short time the activity decreased to the basal level”.
